Tested on: pain due to an intermetatarsal neuroma
Experiment: Average walking pain due to intermetatarsal neuroma on Numeric Pain Rating Scale (NPRS) after two injected doses of trans-capsaicin
Type: in vivo, human
Conditions: for reduction in patients' reported average walking pain due to the intermetatarsal neuroma (NPRS): 27 adult human patients
Description: Twenty-seven adult, human patients experiencing pain due to an intermetatarsal neuroma were treated by administering a first dose of trans-capsaicin (200 μg of trans-capsaicin) and then, after at least 11 weeks, administered a second dose of trans-capsaicin (200 μg of trans-capsaicin). Patients rated their average walking pain due to the intermetatarsal neuroma on a Numeric Pain Rating Scale (NPRS), where pain is characterized by the patient on a scale of zero to ten (with zero being “no pain”, and ten being “worst possible pain”). Patients rated their average walking pain due to the intermetatarsal neuroma on (i) just prior to receiving the injection of trans-capsaicin and (ii) four (4) weeks after receiving each injection of trans-capsaicin. Patients reported a reduction in average walking pain due to the intermetatarsal neuroma when measured at four weeks after injection of trans-capsaicin for each administration of trans-capsaicin.
trans-Capsaicin was administered to twenty-seven (27) adult, human patients experiencing pain due to an intermetatarsal neuroma according to the procedures described below. Prior to administering the first dose of trans-capsaicin in this study, patients reported an average walking pain due to the intermetatarsal neuroma of at least four on the Numeric Pain Rating Scale (NPRS). Patients received two doses of trans-capsaicin.
trans-Capsaicin was injected in the amount of 200 μg per dose by ultrasound-guided needle placement into the area of the neuroma (but not inserting the needle into the intermetatarsal neuroma itself). The dose of trans-capsaicin was injected as a 2 mL solution containing trans-capsaicin at a concentration of 100 μg/mL. […]
Pain due to the intermetatarsal neuroma was evaluated by having patients rate their average walking pain due to the intermetatarsal neuroma on a Numeric Pain Rating Scale (NPRS), where pain is characterized by the patient on a scale of zero to ten (with zero being “no pain”, and ten being “worst possible pain”). […]

**Q.** With `COc1cc(CNC(=O)CCCCC=CC(C)C)ccc1O` [trans-capsaicin, N-[(4-hydroxy-3-methoxyphenyl)methyl]-8-methylnon-6-enamide] as the compound, how does the “reduction in patients' reported average walking pain due to the intermetatarsal neuroma (NPRS)” value (first dose 200 μg trans-capsaicin injected into area of neuroma, four weeks after injection vs prior to first dose) read?
**A.** The value was 1.6 point.

**Q.** What about the “reduction in patients' reported average walking pain due to the intermetatarsal neuroma (NPRS)” value (second dose 200 μg trans-capsaicin (83 to 196 days after first dose), four weeks after injection vs just prior to second dose) of the same compound?
**A.** The value was 2.3 point.

**Q.** What about the “effect of repeat injection on pain due to an intermetatarsal neuroma” value (repeat injection, 200 μg per dose, adult human patients) of the same compound?
**A.** Its value is “effective in ameliorating pain”.
